Measurements reported in ChEMBL document CHEMBL6114939, “Identification of Dual Inhibitors Targeting Main Protease (Mpro) and Cathepsin L as Potential Anti-SARS-CoV-2 Agents” (ACS Med Chem Lett, 2024).

Experiment: Antiviral activity against SARS-CoV-2 infected in human Huh-7 cells overexpressing human ACE2 pre-infected with cells for 1 hr followed by compound addition and measured 23 hrs post infection by virus plaque assay
Format: functional, cell-based

| Structure (SMILES) | EC50 [µM] |
| --- | --- |
| CC(=O)/C=C/[C@H](C[C@@H]1CCNC1=O)NC(=O)[C@H](CC(C)C)NC(=O)c1ccc(F)cc1 | 7.63 |
| CC(=O)/C=C/[C@H](C[C@@H]1CCNC1=O)NC(=O)[C@H](CC1CC1)NC(=O)c1ccccc1F | 10.3 |
| CC(=O)/C=C/[C@H](C[C@@H]1CCNC1=O)NC(=O)[C@H](CC(C)(C)C)NC(=O)c1ccc(F)cc1 | 3.5 |
